This passage reports Activity and IC50 results from ChEMBL document CHEMBL1759968, “Synthesis and biological evaluation of unsaturated keto and exomethylene D-arabinopyranonucleoside analogs: novel 5-fluorouracil analogs that target thymidylate synthase” (Eur J Med Chem, 2011).

Activity calls are given as the source filed them. No cut-off for these calls is given here. Bounds are passed on as bounds.

A word on the IC50: it is the concentration that gives 50% inhibition. High values mean lower potency, low ones higher potency.

For test [1], the system named is Respiratory syncytial virus. Briefly: Antiviral activity against Respiratory syncytial virus infected in HeLa cells assessed as inhibition of virus-induced cytopathic effect. The class given is functional, organism-based. In general terms: Protection from cytopathic effect is a common read-out in antiviral testing.
The subject of a further test is L1210. Briefly: Cytostatic activity against mouse L1210 cells after 2 days by coulter counting analysis. The class given is functional, cell-based. The note with it: L1210, 48 h.
A further test deals with Human alphaherpesvirus 1. Description: Antiviral activity against Herpes simplex virus type-1 infected in HEL cells assessed as inhibition of virus-induced cytopathic effect. It is filed as functional, organism-based.
Test [2] concerns Mammalian orthoreovirus 1. Description: Antiviral activity against Reovirus 1 infected in Vero cells assessed as inhibition of virus-induced cytopathic effect. It is filed as functional, organism-based.
A further test concerns CCRF-CEM. Description: Cytostatic activity against human CEM cells after 3 days by coulter counting analysis. The class given is functional, cell-based. The note with it: 72 h.
The next test relates to FM3A. Briefly: Cytostatic activity against mouse FM3A cells after 2 days by coulter counting analysis. The class given is functional, cell-based. Conditions: 48 h.
In test [3] the test system is Coxsackievirus B4. Description: Antiviral activity against Human coxsackievirus B4 infected in Vero cells assessed as inhibition of virus-induced cytopathic effect. The class given is functional, organism-based.
Test [4] deals with Coxsackievirus B4. Briefly: Antiviral activity against Human coxsackievirus B4 infected in HeLa cells assessed as inhibition of virus-induced cytopathic effect. It is filed as functional, organism-based.
Another test deals with Human alphaherpesvirus 2. Description: Antiviral activity against Herpes simplex virus type-2 infected in HEL cells assessed as inhibition of virus-induced cytopathic effect. The class given is functional, organism-based.
Another test deals with Sindbis virus. Description: Antiviral activity against Sindbis virus infected in Vero cells assessed as inhibition of virus-induced cytopathic effect. It is filed as functional, organism-based.
Test [5] concerns Vesicular stomatitis virus. Description: Antiviral activity against Vesicular stomatitis virus infected in HEL cells assessed as inhibition of virus-induced cytopathic effect. It is filed as functional, organism-based.
Test [6] concerns Vesicular stomatitis virus. Briefly: Antiviral activity against Vesicular stomatitis virus infected in HeLa cells assessed as inhibition of virus-induced cytopathic effect. The class given is functional, organism-based.
Another test has as its system Human respirovirus 3. Description: Antiviral activity against Human parainfluenza virus 3 infected in Vero cells assessed as inhibition of virus-induced cytopathic effect. It is filed as functional, organism-based.
Another test deals with Vaccinia virus. Briefly: Antiviral activity against Vaccinia virus infected in HEL cells assessed as inhibition of virus-induced cytopathic effect. It is filed as functional, organism-based. Conditions: Orthopoxvirus vaccinia.
The next test relates to HeLa. Description: Cytostatic activity against human HeLa cells after 3 days by coulter counting analysis. The note with it: 72 h. It is filed as functional, cell-based.
The test system of another test is Punta Toro virus. Description: Antiviral activity against Punta Toro virus infected in Vero cells assessed as inhibition of virus-induced cytopathic effect. It is filed as functional, organism-based.

As to `C=C1C=CCO[C@@H]1n1ccc(N)nc1=O`, the outcome (in test [1]; in the test on Human alphaherpesvirus 1; in test [2]; in the test on Coxsackievirus B4 [3]; in the test on Coxsackievirus B4 [4]; in the test on Human alphaherpesvirus 2) was inactive. The result (in the test with Sindbis virus; in [5]; in test [6]; in the test with Human respirovirus 3; in the test with Vaccinia virus; with Punta Toro virus) was inactive. The IC50 was 1390 µM in the test with L1210, 1550 µM in the test on CCRF-CEM, not below 1800 µM with FM3A and 990 µM in the test with HeLa.

With `O=C1C=CCO[C@@H]1n1ccc(O)nc1=O`, the result (in test [1]; in the test with Human alphaherpesvirus 1; in test [2]; in the test on Coxsackievirus B4 [3]; with Coxsackievirus B4 [4]; with Human alphaherpesvirus 2) was inactive. The outcome (in the test with Sindbis virus; in test [5]; in test [6]; with Human respirovirus 3; with Vaccinia virus; in the test with Punta Toro virus) was inactive. Moreover, the IC50 was determined as 92 µM in the test on L1210, 82 µM in the test with CCRF-CEM, 121 µM in the test with FM3A and 42 µM in the test on HeLa.

`C=C1C=CCO[C@@H]1n1cc(C)c(O)nc1=O`: the outcome (in test [1]; in the test on Human alphaherpesvirus 1; in test [2]; in the test on Coxsackievirus B4 [3]; in the test with Coxsackievirus B4 [4]; in the test with Human alphaherpesvirus 2) was inactive. The result (with Sindbis virus; in [5]; in test [6]; in the test with Human respirovirus 3; with Vaccinia virus; with Punta Toro virus) was inactive. Further, the IC50 with L1210 was 486 µM; in the test on CCRF-CEM it was 504 µM; with FM3A it was not below 900 µM; in the test on HeLa, 339 µM.

In the case of `C=C1C=CCO[C@@H]1n1ccc(NC(=O)c2ccccc2)nc1=O`, the result (in [1]; in the test on Human alphaherpesvirus 1; in [2]; in the test with Coxsackievirus B4 [3]; in the test with Coxsackievirus B4 [4]; in the test on Human alphaherpesvirus 2) was inactive. The outcome (in the test on Sindbis virus; in test [5]; in test [6]; in the test on Human respirovirus 3; with Vaccinia virus; in the test with Punta Toro virus) was inactive. Moreover, the IC50 in the test on L1210 was 368 µM; with CCRF-CEM, 432 µM; in the test on FM3A, 379 µM; in the test with HeLa it was 296 µM.

Turning to `C=C1[C@H](O)[C@H](O)CO[C@@H]1n1cc(C)c(O)nc1=O`, the outcome (in [1]; in the test with Human alphaherpesvirus 1; in test [2]; in the test with Coxsackievirus B4 [3]; in the test on Coxsackievirus B4 [4]; in the test with Human alphaherpesvirus 2) was inactive. The result (in the test on Sindbis virus; in test [5]; in test [6]; in the test on Human respirovirus 3; with Vaccinia virus; with Punta Toro virus) was inactive. Moreover, the IC50 in the test with L1210 is 610 µM; with CCRF-CEM, not below 800 µM; with FM3A, 775 µM; in the test on HeLa it was not below 800 µM.

Take `C=C1C=CCO[C@@H]1n1ccc(O)nc1=O`: the result (in [1]; in the test with Human alphaherpesvirus 1; in [2]; in the test on Coxsackievirus B4 [3]; in the test on Coxsackievirus B4 [4]; in the test on Human alphaherpesvirus 2) was inactive. For the same molecule, the result (in the test with Sindbis virus; in [5]; in [6]; in the test on Human respirovirus 3; in the test on Vaccinia virus; in the test with Punta Toro virus) was inactive. In addition, the IC50 in the test on L1210 is 549 µM; in the test with CCRF-CEM, 450 µM; with FM3A, more than 1000 µM; with HeLa it was 760 µM.

For `O=C1C=CCO[C@@H]1n1cc(C(F)(F)F)c(O)nc1=O`, the result (in [1]; in the test on Human alphaherpesvirus 1; in test [2]; with Coxsackievirus B4 [3]; with Coxsackievirus B4 [4]; with Human alphaherpesvirus 2) was inactive. The result (in the test with Sindbis virus; in test [5]; in test [6]; in the test on Human respirovirus 3; with Vaccinia virus; with Punta Toro virus) was inactive. Besides, the IC50 was 23 µM with L1210, 39 µM in the test on CCRF-CEM, 46 µM in the test with FM3A and 34 µM with HeLa.

Take `Cc1cn([C@H]2OCC=CC2=O)c(=O)nc1O`: the outcome (in test [1]; with Human alphaherpesvirus 1; in test [2]; with Coxsackievirus B4 [3]; in the test with Coxsackievirus B4 [4]; in the test with Human alphaherpesvirus 2) was inactive. Also, the result (in the test with Sindbis virus; in test [5]; in [6]; in the test on Human respirovirus 3; with Vaccinia virus; with Punta Toro virus) was inactive. Further, the IC50 with L1210 worked out at 34 µM; in the test on CCRF-CEM it was 104 µM; in the test on FM3A it was 77 µM; in the test with HeLa, 34 µM.

In the case of `C=C1[C@H](O)[C@H](O)CO[C@@H]1n1ccc(O)nc1=O`, the outcome (in [1]; in the test on Human alphaherpesvirus 1; in test [2]; with Coxsackievirus B4 [3]; in the test on Coxsackievirus B4 [4]; in the test with Human alphaherpesvirus 2) was inactive. For the same molecule, the outcome (in the test on Sindbis virus; in test [5]; in test [6]; in the test on Human respirovirus 3; in the test on Vaccinia virus; with Punta Toro virus) was inactive. Further, the IC50 with L1210 was more than 800 µM; in the test on CCRF-CEM, more than 800 µM; with FM3A, more than 800 µM; in the test on HeLa, not below 800 µM.
